From ChEMBL document CHEMBL2440076, “New triarylpyrazoles as broad-spectrum anticancer agents: design, synthesis, and biological evaluation” (Eur J Med Chem, 2013)

Assays:
Assay type in all cases: functional
KM12 = assay: Growth inhibition of human KM12 cells assessed as cell growth at 5X10'-9 M after 48 hrs by sulforhodamine B assay; conditions: KM12, 48 h, read-out: Activity
LOX IMVI = assay: Growth inhibition of human LOXIMVI cells assessed as cell growth at 5X10'-5 M after 48 hrs by sulforhodamine B assay; conditions: read-out: Activity
SF-268 = assay: Growth inhibition of human SF268 cells assessed as cell growth at 5X10'-5 M after 48 hrs by sulforhodamine B assay; conditions: SF-268, 48 h, read-out: Activity
COLO 205 [1] = assay: Growth inhibition of human COLO205 cells assessed as cell growth at 5X10'-5 M after 48 hrs by sulforhodamine B assay; conditions: COLO 205, 48 h, read-out: Activity
SR = assay: Growth inhibition of human SR cells assessed as cell growth at 5X10'-5 M after 48 hrs by sulforhodamine B assay; conditions: read-out: Activity
T47D [2] = assay: Growth inhibition of human T47D cells assessed as cell growth at 5X10'-6 M after 48 hrs by sulforhodamine B assay; conditions: read-out: Activity
786-0 = assay: Growth inhibition of human 786-0 cells assessed as cell growth at 5X10'-6 M after 48 hrs by sulforhodamine B assay; conditions: 786-0, 48 h, read-out: Activity
COLO 205 [3] = assay: Growth inhibition of human COLO205 cells assessed as cell growth at 5X10'-9 M after 48 hrs by sulforhodamine B assay; conditions: COLO 205, 48 h, read-out: Activity
NCI-H522 [4] = assay: Growth inhibition of human NCI-H522 cells assessed as cell growth at 5X10'-9 M after 48 hrs by sulforhodamine B assay; conditions: NCI-H522, 48 h, read-out: Activity
SNB-19 = assay: Growth inhibition of human SNB19 cells assessed as cell growth at 5X10'-6 M after 48 hrs by sulforhodamine B assay; conditions: SNB-19, 48 h, read-out: Activity
A549 = assay: Growth inhibition of human A549/ATCC cells assessed as cell growth at 5X10'-6 M after 48 hrs by sulforhodamine B assay; conditions: A549, 48 h, read-out: Activity
RPMI-8226 = assay: Growth inhibition of human RPMI8226 cells assessed as cell growth at 5X10'-6 M after 48 hrs by sulforhodamine B assay; conditions: RPMI-8226, 48 h, read-out: Activity
MDA-MB-468 [5] = assay: Growth inhibition of human MDA-MB-468 cells assessed as cell growth at 5X10'-7 M after 48 hrs by sulforhodamine B assay; conditions: MDA-MB-468, 48 h, read-out: Activity
RXF 393 = assay: Growth inhibition of human RXF393 cells assessed as cell growth at 5X10'-7 M after 48 hrs by sulforhodamine B assay; conditions: RXF 393, 48 h, read-out: Activity
ACHN [6] = assay: Growth inhibition of human ACHN cells assessed as cell growth at 5X10'-7 M after 48 hrs by sulforhodamine B assay; conditions: read-out: Activity
SK-MEL-5 = assay: Growth inhibition of human SK-MEL-5 cells assessed as cell growth at 5X10'-7 M after 48 hrs by sulforhodamine B assay; conditions: SK-MEL-5, 48 h, read-out: Activity
M14 [7] = assay: Growth inhibition of human M14 cells assessed as cell growth at 5X10'-7 M after 48 hrs by sulforhodamine B assay; conditions: M14, 48 h, read-out: Activity
U-251 = assay: Growth inhibition of human U251 cells assessed as cell growth at 5X10'-7 M after 48 hrs by sulforhodamine B assay; conditions: U-251, 48 h, read-out: Activity
COLO 205 [8] = assay: Growth inhibition of human COLO205 cells assessed as cell growth at 5X10'-7 M after 48 hrs by sulforhodamine B assay; conditions: COLO 205, 48 h, read-out: Activity
NCI-H522 [9] = assay: Growth inhibition of human NCI-H522 cells assessed as cell growth at 5X10'-7 M after 48 hrs by sulforhodamine B assay; conditions: NCI-H522, 48 h, read-out: Activity
MOLT-4 = assay: Growth inhibition of human MOLT4 cells assessed as cell growth at 5X10'-7 M after 48 hrs by sulforhodamine B assay; conditions: MOLT-4, 48 h, read-out: Activity
K562 = assay: Growth inhibition of human K562 cells assessed as cell growth at 5X10'-7 M after 48 hrs by sulforhodamine B assay; conditions: K562, 48 h, read-out: Activity
ACHN [10] = assay: Growth inhibition of human ACHN cells assessed as cell growth at 5X10'-8 M after 48 hrs by sulforhodamine B assay; conditions: read-out: Activity
IGROV-1 [11] = assay: Growth inhibition of human IGROV1 cells assessed as cell growth at 5X10'-8 M after 48 hrs by sulforhodamine B assay; conditions: IGROV-1, 48 h, read-out: Activity
SK-MEL-28 = assay: Growth inhibition of human SK-MEL-28 cells assessed as cell growth at 5X10'-8 M after 48 hrs by sulforhodamine B assay; conditions: SK-MEL-28, 48 h, read-out: Activity
Malme-3M = assay: Growth inhibition of human MALME-3M cells assessed as cell growth at 5X10'-8 M after 48 hrs by sulforhodamine B assay; conditions: read-out: Activity
T47D [12] = assay: Growth inhibition of human T47D cells assessed as cell growth at 5X10'-5 M after 48 hrs by sulforhodamine B assay; conditions: read-out: Activity
MDA-MB-231 = assay: Growth inhibition of human MDA-MB-231 cells assessed as cell growth at 5X10'-5 M after 48 hrs by sulforhodamine B assay; conditions: MDA-MB-231, 48 h, read-out: Activity
SK-OV-3 [13] = assay: Growth inhibition of human SKOV3 cells assessed as cell growth at 5X10'-5 M after 48 hrs by sulforhodamine B assay; conditions: SK-OV-3, 48 h, read-out: Activity
OVCAR-4 = assay: Growth inhibition of human OVCAR4 cells assessed as cell growth at 5X10'-5 M after 48 hrs by sulforhodamine B assay; conditions: OVCAR-4, 48 h, read-out: Activity
IGROV-1 [14] = assay: Growth inhibition of human IGROV1 cells assessed as cell growth at 5X10'-5 M after 48 hrs by sulforhodamine B assay; conditions: IGROV-1, 48 h, read-out: Activity
[15] = Growth inhibition of human HCC2998 cells assessed as cell growth at 5X10'-8 M after 48 hrs by sulforhodamine B assay; conditions: HCC 2998, 48 h, read-out: Activity
NCI-H226 = assay: Growth inhibition of human NCI-H226 cells assessed as cell growth at 5X10'-8 M after 48 hrs by sulforhodamine B assay; conditions: NCI-H226, 48 h, read-out: Activity
MDA-MB-468 [16] = assay: Growth inhibition of human MDA-MB-468 cells assessed as cell growth at 5X10'-9 M after 48 hrs by sulforhodamine B assay; conditions: MDA-MB-468, 48 h, read-out: Activity
PC-3 = assay: Growth inhibition of human PC3 cells assessed as cell growth at 5X10'-9 M after 48 hrs by sulforhodamine B assay; conditions: PC-3, 48 h, read-out: Activity
SK-OV-3 [17] = assay: Growth inhibition of human SKOV3 cells assessed as cell growth at 5X10'-9 M after 48 hrs by sulforhodamine B assay; conditions: SK-OV-3, 48 h, read-out: Activity
M14 [18] = assay: Growth inhibition of human M14 cells assessed as cell growth at 5X10'-9 M after 48 hrs by sulforhodamine B assay; conditions: M14, 48 h, read-out: Activity

| Structure (SMILES) | growth at 0.005 µM (KM12) [%] | growth at 50 µM (LOX IMVI) [%] | growth at 50 µM (SF-268) [%] | growth at 50 µM (COLO 205 [1]) [%] | growth at 50 µM (SR) [%] | growth at 5 µM (T47D [2]) [%] | growth at 5 µM (786-0) [%] | growth at 0.005 µM (COLO 205 [3]) [%] | growth at 0.005 µM (NCI-H522 [4]) [%] | growth at 5 µM (SNB-19) [%] | growth at 5 µM (A549) [%] | growth at 5 µM (RPMI-8226) [%] | growth at 0.5 µM (MDA-MB-468 [5]) [%] | growth at 0.5 µM (RXF 393) [%] | growth at 0.5 µM (ACHN [6]) [%] | growth at 0.5 µM (SK-MEL-5) [%] | growth at 0.5 µM (M14 [7]) [%] | growth at 0.5 µM (U-251) [%] | growth at 0.5 µM (COLO 205 [8]) [%] | growth at 0.5 µM (NCI-H522 [9]) [%] | also measured |
| --- | --- | --- | --- | --- | --- | --- | --- | --- | --- | --- | --- | --- | --- | --- | --- | --- | --- | --- | --- | --- | --- |
| COc1cc(-c2nn(-c3cccc(NC(=O)c4cccc(C(F)(F)F)c4)c3)cc2-c2ccncc2)ccc1Cl | 100 | 5 | 8 | -72 | -2 | 36 | 27 | 108 | 95 | 28 | 19 | 12 | 89 | 68 | 81 | 86 | 91 | 88 | 102 | 79 | growth at 0.5 µM (MOLT-4): 91%; growth at 0.5 µM (K562): 83%; growth at 0.05 µM (ACHN [10]): 103%; growth at 0.05 µM (IGROV-1 [11]): 95%; growth at 0.05 µM (SK-MEL-28): 102%; growth at 0.05 µM (Malme-3M): 82%; growth at 50 µM (T47D [12]): 21%; growth at 50 µM (MDA-MB-231): -21%; growth at 50 µM (SK-OV-3 [13]): 17%; growth at 50 µM (OVCAR-4): 29%; growth at 50 µM (IGROV-1 [14]): 5%; growth at 0.05 µM [15]: 100%; growth at 0.05 µM (NCI-H226): 93%; growth at 0.005 µM (MDA-MB-468 [16]): 94%; growth at 0.005 µM (PC-3): 98%; growth at 0.005 µM (SK-OV-3 [17]): 96%; growth at 0.005 µM (M14 [18]): 95% |
| O=C(Nc1cccc(-n2cc(-c3ccncc3)c(-c3ccc(Cl)c(O)c3)n2)c1)c1ccc(N2CCOCC2)c(C(F)(F)F)c1 | 94 | -53 | 30 | 65 | 8 | 84 | 35 | 98 | 93 | 45 | 39 | 9 | 92 | 57 | 85 | 93 | 84 | 94 | 111 | 92 | growth at 0.5 µM (MOLT-4): 87%; growth at 0.5 µM (K562): 103%; growth at 0.05 µM (ACHN [10]): 99%; growth at 0.05 µM (IGROV-1 [11]): 95%; growth at 0.05 µM (SK-MEL-28): 102%; growth at 0.05 µM (Malme-3M): 87%; growth at 50 µM (T47D [12]): 44%; growth at 50 µM (MDA-MB-231): -8%; growth at 50 µM (SK-OV-3 [13]): 36%; growth at 50 µM (OVCAR-4): 46%; growth at 50 µM (IGROV-1 [14]): 4%; growth at 0.05 µM [15]: 99%; growth at 0.05 µM (NCI-H226): 95%; growth at 0.005 µM (MDA-MB-468 [16]): 95%; growth at 0.005 µM (PC-3): 100%; growth at 0.005 µM (SK-OV-3 [17]): 95%; growth at 0.005 µM (M14 [18]): 96% |
| O=C(Nc1cccc(-n2cc(-c3ccncc3)c(-c3ccc(Cl)c(O)c3)n2)c1)Nc1cc(C(F)(F)F)cc(C(F)(F)F)c1 | 105 | -95 | -65 | -91 | -8 | 20 | -23 | 105 | 101 | 16 | -33 | 4 | 37 | 82 | 55 | 62 | 59 | 49 | 93 | 65 | growth at 0.5 µM (MOLT-4): 81%; growth at 0.5 µM (K562): 46%; growth at 0.05 µM (ACHN [10]): 96%; growth at 0.05 µM (IGROV-1 [11]): 102%; growth at 0.05 µM (SK-MEL-28): 95%; growth at 0.05 µM (Malme-3M): 100%; growth at 50 µM (T47D [12]): -25%; growth at 50 µM (MDA-MB-231): -72%; growth at 50 µM (SK-OV-3 [13]): -49%; growth at 50 µM (OVCAR-4): -74%; growth at 50 µM (IGROV-1 [14]): -55%; growth at 0.05 µM [15]: 105%; growth at 0.05 µM (NCI-H226): 85%; growth at 0.005 µM (MDA-MB-468 [16]): 94%; growth at 0.005 µM (PC-3): 90%; growth at 0.005 µM (SK-OV-3 [17]): 103%; growth at 0.005 µM (M14 [18]): 104% |
